Active and inactive are the calls of the source.
Key:
[1] = molecular target: T1, Adenosylmethionine-8-amino-7-oxononanoate aminotransferase (Mycobacterium tuberculosis, UniProt P9WQ81); assay: Mycobacterium tuberculosis BioA enzyme inhibitor Measured in Biochemical System Using Plate Reader - 2163-02_Inhibitor_Dose_CherryPick_Activity.; type: functional, Mycobacterium tuberculosis UT205
T1 sequence (P9WQ81 whole entry): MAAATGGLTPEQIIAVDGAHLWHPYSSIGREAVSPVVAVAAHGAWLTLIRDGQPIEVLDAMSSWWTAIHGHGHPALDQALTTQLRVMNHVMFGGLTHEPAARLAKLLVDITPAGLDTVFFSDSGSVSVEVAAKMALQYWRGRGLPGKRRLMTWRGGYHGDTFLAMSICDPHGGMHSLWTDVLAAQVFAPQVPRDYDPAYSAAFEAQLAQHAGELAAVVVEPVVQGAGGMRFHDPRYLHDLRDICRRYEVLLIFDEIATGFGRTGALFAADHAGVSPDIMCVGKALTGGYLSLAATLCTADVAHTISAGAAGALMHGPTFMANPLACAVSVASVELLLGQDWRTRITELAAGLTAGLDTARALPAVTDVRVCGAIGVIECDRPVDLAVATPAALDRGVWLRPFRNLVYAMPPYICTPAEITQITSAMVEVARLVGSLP

cells [2] = type: functional, cell-based
cells [3] = type: functional, cell-based; remark: listed apart in the source
Fatty acid synthase [4] = molecular target: T2, Fatty acid synthase (Homo sapiens, UniProt P49327); assay: FAS thioesterase domain inhibitors, dose response, biochemical, kinetic fluorescence intensity (AID 624326); type: functional;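 also: rate of fluorescence rise from hydrolysis of a fluorogenic O-methyl fluorescein ester substrate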
[5] = molecular target: T3, Heat shock factor protein 1 (Mus musculus, UniProt P38532); assay: inhibition of MG132-induced HSE-luciferase signal, confirmation, cell-based, NIH3T3, luminescence, dose retest (AID 2382); type: functional;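 also: NIH3T3 fibroblasts with HSF1-driven luciferase reporter stressed by proteasome inhibitor MG132; luminescence from HSF1-driven luciferase expression after 8 hours of MG132 stress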
T3 sequence (P38532 whole entry): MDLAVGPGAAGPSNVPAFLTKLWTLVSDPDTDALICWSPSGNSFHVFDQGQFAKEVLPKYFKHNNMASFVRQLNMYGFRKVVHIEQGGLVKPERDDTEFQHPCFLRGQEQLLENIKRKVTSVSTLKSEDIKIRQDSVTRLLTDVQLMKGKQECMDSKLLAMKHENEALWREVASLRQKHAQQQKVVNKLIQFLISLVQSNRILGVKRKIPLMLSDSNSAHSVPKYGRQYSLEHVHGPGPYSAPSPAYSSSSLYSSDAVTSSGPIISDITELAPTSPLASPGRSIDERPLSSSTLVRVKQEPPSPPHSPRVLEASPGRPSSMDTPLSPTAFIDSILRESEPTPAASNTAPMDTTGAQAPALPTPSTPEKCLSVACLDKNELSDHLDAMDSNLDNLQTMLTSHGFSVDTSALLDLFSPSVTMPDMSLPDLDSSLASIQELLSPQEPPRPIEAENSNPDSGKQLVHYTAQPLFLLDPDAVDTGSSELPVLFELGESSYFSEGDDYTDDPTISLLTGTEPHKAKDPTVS

Fatty acid synthase [6] = molecular target: T2, Fatty acid synthase; assay: FAS thioesterase domain inhibitors, dose response, biochemical, endpoint fluorescence intensity, uHTS hits (AID 624327); type: functional;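 also: fluorescence from hydrolysis of an O-methyl fluorescein acyl ester substrate by the enzyme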
Nonstructural protein 1 = Nonstructural protein 1 (Influenza A virus, UniProt Q194T2); type: functional, Influenza A virus (A/California/07/2009(H1N1))
HEK293 = assay: inhibitors of LMP1-driven NF-kB reporter, dose response, cell-based, HEK293, luciferase, cherry-pick (AID 588343); type: functional; details: Homo sapiens
[7] = molecular target: T4, Replicative DNA helicase DnaB (Mycobacterium tuberculosis, UniProt P9WMR3); assay: DnaB intein splicing inhibitors, dose response, biochemical, cell-free fluorescence (AID 449749); type: functional
T4 sequence (P9WMR3 whole entry): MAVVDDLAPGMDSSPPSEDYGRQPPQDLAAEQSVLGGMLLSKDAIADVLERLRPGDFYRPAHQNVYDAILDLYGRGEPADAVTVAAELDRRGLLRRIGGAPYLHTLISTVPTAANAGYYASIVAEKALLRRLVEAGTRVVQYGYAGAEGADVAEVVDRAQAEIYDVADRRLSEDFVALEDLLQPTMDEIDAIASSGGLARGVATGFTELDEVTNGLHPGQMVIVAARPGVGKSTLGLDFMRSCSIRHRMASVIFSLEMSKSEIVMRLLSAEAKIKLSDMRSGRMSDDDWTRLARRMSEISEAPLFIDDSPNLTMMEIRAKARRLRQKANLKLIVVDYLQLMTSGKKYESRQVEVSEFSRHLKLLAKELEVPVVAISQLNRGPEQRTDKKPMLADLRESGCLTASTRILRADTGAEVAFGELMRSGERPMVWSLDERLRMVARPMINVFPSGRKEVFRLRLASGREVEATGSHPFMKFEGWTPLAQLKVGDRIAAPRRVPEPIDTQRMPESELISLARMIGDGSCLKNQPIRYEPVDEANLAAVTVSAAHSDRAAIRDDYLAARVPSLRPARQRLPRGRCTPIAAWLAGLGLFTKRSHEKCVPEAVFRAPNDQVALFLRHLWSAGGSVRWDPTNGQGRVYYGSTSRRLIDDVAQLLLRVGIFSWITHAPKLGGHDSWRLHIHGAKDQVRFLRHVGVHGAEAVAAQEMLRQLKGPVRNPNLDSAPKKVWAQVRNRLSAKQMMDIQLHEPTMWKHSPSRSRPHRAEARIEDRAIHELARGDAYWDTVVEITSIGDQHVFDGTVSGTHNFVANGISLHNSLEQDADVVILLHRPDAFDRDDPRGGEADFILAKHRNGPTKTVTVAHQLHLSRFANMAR

Protein RecA = molecular target: T5, Protein RecA (Mycobacterium tuberculosis, UniProt P9WHJ3); assay: Fluorescence Cell-Free Homogeneous Dose Retest to Identify Inhibitors of RecA-Intein Splicing Activity. [Related pubchem assays (depositor defined):AID2097, AID2223, AID489010, AID492950]; type: functional
T5 sequence (P9WHJ3 whole entry): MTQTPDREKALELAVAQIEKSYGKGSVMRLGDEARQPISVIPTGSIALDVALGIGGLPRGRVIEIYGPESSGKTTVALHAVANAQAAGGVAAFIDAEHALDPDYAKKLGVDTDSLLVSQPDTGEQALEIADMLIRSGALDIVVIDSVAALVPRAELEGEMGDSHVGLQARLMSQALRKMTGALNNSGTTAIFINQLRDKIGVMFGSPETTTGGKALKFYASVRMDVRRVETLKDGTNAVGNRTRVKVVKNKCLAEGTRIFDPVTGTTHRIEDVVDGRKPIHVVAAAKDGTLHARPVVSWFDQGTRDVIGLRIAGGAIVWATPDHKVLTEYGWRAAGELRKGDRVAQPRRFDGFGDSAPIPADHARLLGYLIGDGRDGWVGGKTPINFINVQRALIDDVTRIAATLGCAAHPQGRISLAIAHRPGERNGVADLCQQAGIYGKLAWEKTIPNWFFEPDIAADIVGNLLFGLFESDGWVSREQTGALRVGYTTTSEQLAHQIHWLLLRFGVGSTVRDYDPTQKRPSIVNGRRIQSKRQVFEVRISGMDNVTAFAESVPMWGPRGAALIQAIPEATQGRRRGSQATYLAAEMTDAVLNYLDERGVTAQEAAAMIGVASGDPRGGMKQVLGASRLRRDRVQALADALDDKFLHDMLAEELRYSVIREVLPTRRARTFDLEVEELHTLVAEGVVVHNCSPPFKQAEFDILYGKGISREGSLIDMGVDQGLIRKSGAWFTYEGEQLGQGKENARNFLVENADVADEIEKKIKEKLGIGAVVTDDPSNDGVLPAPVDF

[8] = C. albicans growth with fluconazole, confirmation, fluorescence, retest (AID 2467); type: functional, cell-based
[9] = NIH-3T3 fibroblast cytotoxicity, dose response, cytotoxicity control, cell-based, fluorescence, Alamar Blue, secondary assay (AID 2327); type: functional;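 also: NIH-3T3 mouse fibroblasts cultured with fluconazole at 8 µg/mL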
[10] = cytotoxicity in HPDE-C7 cells, cell-based, fluorescence, HTS (AID 430); type: functional; details: Homo sapiens
[11] = molecular target: Induced myeloid leukemia cell differentiation protein Mcl-1 (Homo sapiens, UniProt Q07820); type: functional
[12] = microbe, parasite or virus in culture; type: functional; details: Mycobacterium tuberculosis
[13] = cytotoxicity in KRAS-transformed pancreatic duct cells, primary screen, cell-based, fluorescence, HTS (AID 431); type: functional; details: Homo sapiens;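 also: cell line used: HPDE-C7K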
[14] = molecular target: T6, Oxysterols receptor LXR-beta (Homo sapiens, UniProt P55055); type: functional, cell-based;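 also: Cell-based luminescence dose-response assay of agonist activity at LXR, run as a confirmatory counterscreen to a daf-12 agonist screen; HEK293 cells with Gal4-LXR fusion and GAL4-driven luciferase reporter; agonist potency from rising luciferase signal of a Gal4-LXR reporter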
T6 sequence (P55055 whole entry): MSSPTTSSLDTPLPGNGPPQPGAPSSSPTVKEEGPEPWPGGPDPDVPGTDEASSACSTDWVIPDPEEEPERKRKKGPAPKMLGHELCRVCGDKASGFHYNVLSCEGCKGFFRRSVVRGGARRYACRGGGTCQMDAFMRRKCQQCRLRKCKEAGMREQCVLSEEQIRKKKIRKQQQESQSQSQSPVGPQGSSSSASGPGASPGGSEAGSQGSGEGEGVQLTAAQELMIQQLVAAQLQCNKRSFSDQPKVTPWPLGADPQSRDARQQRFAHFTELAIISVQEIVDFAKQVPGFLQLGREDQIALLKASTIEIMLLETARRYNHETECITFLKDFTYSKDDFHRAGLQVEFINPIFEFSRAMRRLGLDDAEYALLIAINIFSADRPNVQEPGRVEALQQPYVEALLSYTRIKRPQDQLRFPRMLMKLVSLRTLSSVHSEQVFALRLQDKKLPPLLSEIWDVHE

[15] = inhibitors of intracellular T. cruzi replication, confirmation, NIH3T3 host cells, beta-gal luminescence (AID 2044); type: functional, cell-based;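 also: intracellular parasites grown in NIH/3T3 mouse fibroblasts as host cells; luminescent beta-galactosidase reporter signal from transgenic T. cruzi replicating inside host cells; inhibitors lower the luminescence signal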
[16] = cytotoxicity toward NIH3T3 fibroblasts, dose response, counter-screen, cell-based, ATP luminescence, mouse fibroblasts (AID 2010); type: functional;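 also: cells exposed to compound for about 90 hours before reading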
cells [17] = assay: cells
[18] = growth suppression of beta-catenin-knockout colon cells, dose response, cell-based, HCT116, human colon tumor (AID 1045); type: functional;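 also: HCT116 colon tumor cells with beta catenin knocked out; cells exposed to compound for 60 hours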
[19] = growth suppression of PTEN-null colon cells, dose response, cell-based, HCT116 PTEN knockout (AID 1047); type: functional;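 also: HCT116 colon tumor cells with PTEN knocked out; cells exposed to compound for 60 hours before readout; potency for loss of cell viability measured by luminescence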
CAAX prenyl protease 2 = molecular target: T7, CAAX prenyl protease 2 (Saccharomyces cerevisiae S288c, UniProt Q03530); type: biochemical
T7 sequence (Q03530 whole entry): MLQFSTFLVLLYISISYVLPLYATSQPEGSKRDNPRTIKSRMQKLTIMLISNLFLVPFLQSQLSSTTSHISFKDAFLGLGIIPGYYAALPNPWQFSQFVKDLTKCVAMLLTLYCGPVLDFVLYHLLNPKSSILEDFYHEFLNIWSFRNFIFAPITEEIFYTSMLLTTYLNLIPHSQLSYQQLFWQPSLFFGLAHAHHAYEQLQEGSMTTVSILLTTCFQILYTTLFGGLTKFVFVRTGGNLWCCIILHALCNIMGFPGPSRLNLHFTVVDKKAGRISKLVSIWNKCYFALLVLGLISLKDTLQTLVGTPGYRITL

T2 sequence (P49327 whole entry, the tested form may be a part): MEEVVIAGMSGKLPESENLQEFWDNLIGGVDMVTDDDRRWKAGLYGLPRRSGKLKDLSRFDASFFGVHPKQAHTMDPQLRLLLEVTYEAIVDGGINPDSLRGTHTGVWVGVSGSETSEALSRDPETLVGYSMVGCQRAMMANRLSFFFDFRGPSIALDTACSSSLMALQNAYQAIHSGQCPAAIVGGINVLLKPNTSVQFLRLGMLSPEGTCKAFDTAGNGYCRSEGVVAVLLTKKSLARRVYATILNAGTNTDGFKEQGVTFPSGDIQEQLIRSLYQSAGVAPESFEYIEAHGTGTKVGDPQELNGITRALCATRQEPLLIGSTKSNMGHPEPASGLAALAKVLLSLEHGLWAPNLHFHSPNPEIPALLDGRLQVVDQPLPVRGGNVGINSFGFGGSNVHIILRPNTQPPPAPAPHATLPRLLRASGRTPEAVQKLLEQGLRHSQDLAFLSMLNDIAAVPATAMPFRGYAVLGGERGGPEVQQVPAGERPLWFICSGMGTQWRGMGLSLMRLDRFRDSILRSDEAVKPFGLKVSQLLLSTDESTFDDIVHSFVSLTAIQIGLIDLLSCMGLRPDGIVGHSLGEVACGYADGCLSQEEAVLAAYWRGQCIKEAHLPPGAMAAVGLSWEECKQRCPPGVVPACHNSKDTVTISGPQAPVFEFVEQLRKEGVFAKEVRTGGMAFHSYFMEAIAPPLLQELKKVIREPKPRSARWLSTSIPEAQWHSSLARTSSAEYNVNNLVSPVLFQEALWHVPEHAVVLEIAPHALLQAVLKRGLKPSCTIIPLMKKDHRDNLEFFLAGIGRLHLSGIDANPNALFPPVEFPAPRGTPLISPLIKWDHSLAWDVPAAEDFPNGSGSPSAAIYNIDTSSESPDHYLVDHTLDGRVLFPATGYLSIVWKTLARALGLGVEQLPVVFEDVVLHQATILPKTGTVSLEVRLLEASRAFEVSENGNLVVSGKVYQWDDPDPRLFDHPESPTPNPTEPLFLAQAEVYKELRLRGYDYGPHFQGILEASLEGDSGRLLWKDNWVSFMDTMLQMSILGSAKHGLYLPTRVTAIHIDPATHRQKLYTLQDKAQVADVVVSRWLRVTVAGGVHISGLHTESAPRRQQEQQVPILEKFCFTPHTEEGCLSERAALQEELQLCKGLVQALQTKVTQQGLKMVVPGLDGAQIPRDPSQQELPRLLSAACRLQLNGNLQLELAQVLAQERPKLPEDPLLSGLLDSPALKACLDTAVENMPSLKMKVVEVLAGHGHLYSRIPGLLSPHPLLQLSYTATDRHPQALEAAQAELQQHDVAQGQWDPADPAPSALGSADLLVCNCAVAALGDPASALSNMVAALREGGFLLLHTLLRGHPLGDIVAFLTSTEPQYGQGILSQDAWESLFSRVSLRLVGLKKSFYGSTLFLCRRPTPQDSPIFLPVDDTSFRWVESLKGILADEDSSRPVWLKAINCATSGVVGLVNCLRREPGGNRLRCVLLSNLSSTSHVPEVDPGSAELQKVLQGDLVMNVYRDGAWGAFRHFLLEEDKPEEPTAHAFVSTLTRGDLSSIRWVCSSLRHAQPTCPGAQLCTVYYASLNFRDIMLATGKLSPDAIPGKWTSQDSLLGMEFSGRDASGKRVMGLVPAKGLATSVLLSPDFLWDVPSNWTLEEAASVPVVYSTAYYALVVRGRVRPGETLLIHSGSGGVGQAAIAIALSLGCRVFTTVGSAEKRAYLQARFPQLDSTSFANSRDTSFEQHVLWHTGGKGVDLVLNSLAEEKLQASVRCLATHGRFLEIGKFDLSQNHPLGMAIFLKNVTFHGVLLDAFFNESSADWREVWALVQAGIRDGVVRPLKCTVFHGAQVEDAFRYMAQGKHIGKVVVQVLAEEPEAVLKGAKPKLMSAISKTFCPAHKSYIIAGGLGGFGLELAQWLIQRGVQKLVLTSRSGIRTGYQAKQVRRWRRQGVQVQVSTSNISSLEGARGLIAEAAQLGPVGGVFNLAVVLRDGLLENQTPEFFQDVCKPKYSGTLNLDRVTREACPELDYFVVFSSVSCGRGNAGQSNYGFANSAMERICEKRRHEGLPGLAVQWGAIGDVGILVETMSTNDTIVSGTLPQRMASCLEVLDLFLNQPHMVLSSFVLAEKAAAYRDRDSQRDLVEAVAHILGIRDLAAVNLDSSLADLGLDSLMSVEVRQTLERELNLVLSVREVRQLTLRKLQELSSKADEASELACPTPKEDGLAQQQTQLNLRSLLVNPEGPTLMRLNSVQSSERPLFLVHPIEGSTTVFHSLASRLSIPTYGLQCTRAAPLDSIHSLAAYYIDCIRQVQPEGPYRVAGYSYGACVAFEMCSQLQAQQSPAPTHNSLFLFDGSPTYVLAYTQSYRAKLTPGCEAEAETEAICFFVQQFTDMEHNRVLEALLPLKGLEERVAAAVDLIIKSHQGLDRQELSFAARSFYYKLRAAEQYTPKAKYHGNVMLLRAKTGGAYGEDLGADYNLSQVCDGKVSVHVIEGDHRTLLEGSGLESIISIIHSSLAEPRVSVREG
Induced myeloid leukemia cell differentiation protein Mcl-1, sequence (Q07820 whole entry): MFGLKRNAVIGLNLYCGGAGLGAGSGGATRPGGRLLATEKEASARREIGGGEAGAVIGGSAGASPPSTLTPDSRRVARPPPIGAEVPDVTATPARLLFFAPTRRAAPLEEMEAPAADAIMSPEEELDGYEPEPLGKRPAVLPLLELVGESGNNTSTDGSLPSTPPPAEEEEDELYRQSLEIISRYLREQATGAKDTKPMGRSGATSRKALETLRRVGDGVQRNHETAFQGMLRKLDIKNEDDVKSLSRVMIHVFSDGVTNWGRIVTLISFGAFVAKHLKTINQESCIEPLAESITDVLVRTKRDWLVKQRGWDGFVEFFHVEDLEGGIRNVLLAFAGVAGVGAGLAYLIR
Nonstructural protein 1, sequence (Q194T2 whole entry): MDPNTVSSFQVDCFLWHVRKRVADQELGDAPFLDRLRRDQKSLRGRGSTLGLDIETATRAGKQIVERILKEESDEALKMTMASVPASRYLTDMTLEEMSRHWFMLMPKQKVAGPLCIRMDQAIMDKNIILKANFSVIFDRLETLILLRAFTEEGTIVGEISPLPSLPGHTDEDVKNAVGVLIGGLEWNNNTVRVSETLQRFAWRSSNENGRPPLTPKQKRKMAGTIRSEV

CC(Oc1ccc2ccc(=O)oc2c1)C(=O)N1CCOCC1 (stereo unspecified)
AC50 [1]: 6.85 µM (active)

Cc1ccc(-c2nnc(N3CCN(C(=O)CSc4nc[nH]n4)CC3)c3ccccc23)cc1
AC50 [1]: 1.07 µM (active)

COc1ccc(C2CC(c3cccs3)=NN2C(=O)CSc2nc(=O)n3cc(C)ccc3n2)cc1 (stereo unspecified)
EC50 (cells [2]): > 350 µM (not active) | EC50 (cells [3]): > 350 µM (not active)

O=C(c1ccccc1F)N1CC[C@@H]2[C@H](CO)Nc3ccc(Br)cc3[C@@H]21
AC50 [1]: 1.81 µM (active)

COc1cc(/C=N/NC(=O)c2cncc(Br)c2)cc([N+](=O)[O-])c1O
IC50 (Fatty acid synthase [4]): 9.66 µM (active) | EC50 [5]: 0.977 µM (active) | IC50 (Fatty acid synthase [6]): 18.7 µM (active) | IC50 (Nonstructural protein 1): 4.26 µM (active)

Cc1ccc(Cc2c(C)nc3nc(SCC(=O)NCCCN4CCCCC4)nn3c2C)cc1
AC50 [1]: 11.1 µM (active)

COc1ccc(N=C(S)Nc2ccccn2)c(OC)c1
EC50 (cells [2]): 53.6 µM (active) | EC50 (cells [3]): > 350 µM (not active)

CCN(CC)c1ccc(/C=N/Nc2nc(C)cc(O)n2)c(O)c1
AC50 (HEK293): 1.75 µM (active) | AC50 [7]: > 380 µM (inactive) | EC50 (Protein RecA): 28 µM (active) | EC50 [8]: 1.09 µM (active) | EC50 [9]: 3.13 µM (active) | EC50 (cells [2]): > 350 µM (not active) | EC50 (cells [3]): 6.92 µM (active)

Oc1ccccc1NCC(O)Cn1ccc2ccccc21 (stereo unspecified)
EC50 [10]: 12.8 µM (active) | IC50 [11]: 4.49 µM (active) | CC50 [12]: > 40 µM (active) | EC50 [13]: 13.2 µM (active)

Cc1cccc(-c2cc3c(N=O)c4ccccc4c-3[nH]n2)c1
EC50 [14]: > 67.5 µM (inactive) | EC50 [15]: 4.86 µM (active) | EC50 [16]: > 60 µM (not active) | EC50 (cells [17]): > 67.5 µM (inactive)

Cc1cc2oc3c(c(=O)c2cc1C)C(c1cccc(Br)c1)N(Cc1ccco1)C3=O (stereo unspecified)
EC50 [10]: > 20 µM (not active) | EC50 [18]: 8.39 µM (active) | EC50 [13]: > 20 µM (not active) | EC50 [19]: 9.43 µM (active)

COc1cccc(/C=N/NC(=O)CNC(=O)C(c2ccccc2)c2ccccc2)c1O
EC50 (cells [2]): > 350 µM (not active) | EC50 (cells [3]): 30.6 µM (active)

NC(=S)n1nc(-c2ccc([N+](=O)[O-])cc2)c(/N=N/c2ccc(Cl)cc2)c1O
IC50 (Fatty acid synthase [4]): 9.27 µM (active) | IC50 [11]: > 54 µM (active) | IC50 (Fatty acid synthase [6]): 17.5 µM (active)

COc1ccc2oc(C(=O)Nc3ccccn3)c(C)c2c1
EC50 [14]: > 67.5 µM (inactive) | EC50 (cells [17]): > 67.5 µM (inactive)

N=C(NOC(=O)c1cccs1)c1ccc(Cl)cc1
EC50 (cells [2]): 7.41 µM (active) | EC50 (cells [3]): > 350 µM (not active)

CCOc1ccc(-c2c(C(=O)N/N=C/c3cccs3)nnn2-c2nonc2N)cc1
AC50 (CAAX prenyl protease 2): 5.5 µM (active)

From ChEMBL document CHEMBL1201862, “PubChem BioAssay data set” (2004)
